Test results: PubChem BioAssay AID1963959 (Molecular Pharmacology Branch, DTP, NCI, 2024)

System: T-47D spheroids with HUVEC/MSC, viability
Assay: Anticancer human tumor T-47D cell line growth inhibition [PI3K];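 note: spheroids exposed to agents for seven days before reading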;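 for viability, T/C: percent of DMSO vehicle control luminescence so 100% = untreated growth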
Settings: for viability, T/C: stronger effect = lower value
Summary of the method: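 Spheroid viability read-out. Co-cultures contained the tumor line plus HUVEC and human MSCs. Each agent was paired with a PI3K inhibitor (inavolisib, alpelisib, duvelisib, copanlisib) across half-log dilutions starting at clinical Cmax, or at 10 microM when Cmax was unknown.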

[1] = curve of first compound, second compound 0.0316 µM
[2] = curve of first compound, second compound 0.1 µM
[3] = curve of first compound, second compound 0.316 µM
[4] = curve of first compound, second compound 1 µM
[5] = curve of first compound, second compound 3.16 µM
[6] = curve of first compound, second compound 10 µM
[7] = second compound 0.0316 µM, first compound 0.0316 µM
[8] = second compound 0.0316 µM, first compound 0.1 µM
[9] = second compound 0.0316 µM, first compound 0.316 µM
[10] = second compound 0.0316 µM, first compound 1 µM
[11] = second compound 0.0316 µM, first compound 3.16 µM
[12] = second compound 0.0316 µM, first compound 10 µM
[13] = second compound 0.1 µM, first compound 0.0316 µM
[14] = second compound 0.1 µM, first compound 0.1 µM
[15] = second compound 0.1 µM, first compound 0.316 µM
[16] = second compound 0.1 µM, first compound 1 µM
[17] = second compound 0.1 µM, first compound 3.16 µM
[18] = second compound 0.1 µM, first compound 10 µM
[19] = second compound 0.316 µM, first compound 0.0316 µM
[20] = second compound 0.316 µM, first compound 0.1 µM
[21] = second compound 0.316 µM, first compound 0.316 µM
[22] = second compound 0.316 µM, first compound 1 µM
[23] = second compound 0.316 µM, first compound 3.16 µM
[24] = second compound 0.316 µM, first compound 10 µM
[25] = second compound 1 µM, first compound 0.0316 µM
[26] = second compound 1 µM, first compound 0.1 µM
[27] = second compound 1 µM, first compound 0.316 µM
[28] = second compound 1 µM, first compound 1 µM
[29] = second compound 1 µM, first compound 3.16 µM
[30] = second compound 1 µM, first compound 10 µM
[31] = second compound 3.16 µM, first compound 0.0316 µM
[32] = second compound 3.16 µM, first compound 0.1 µM
[33] = second compound 3.16 µM, first compound 0.316 µM
[34] = second compound 3.16 µM, first compound 1 µM
[35] = second compound 3.16 µM, first compound 3.16 µM
[36] = second compound 3.16 µM, first compound 10 µM
[37] = second compound 10 µM, first compound 0.0316 µM
[38] = second compound 10 µM, first compound 0.1 µM
[39] = second compound 10 µM, first compound 0.316 µM
[40] = second compound 10 µM, first compound 1 µM
[41] = second compound 10 µM, first compound 3.16 µM
[42] = second compound 10 µM, first compound 10 µM

In the case of Cn1cnc2c(F)c(Nc3ccc(Br)cc3Cl)c(C(=O)NOCCO)cc21 + COc1c(OCCCN2CCOCC2)ccc2c3n(c(=NC(=O)c4cnc(N)nc4)nc12)CCN3, the IC50 (curve of first compound, second compound 0.00316 µM) is reported as > 3 µM, the IC50 (curve of first compound, second compound 0.01 µM) is reported as > 3 µM and the IC50 [1] is reported as > 3 µM. For the same compound, the IC50 [2] was < 0.00949 µM, the IC50 [3] was < 0.00949 µM and the IC50 [4] was < 0.00949 µM. For the same compound, the viability, T/C (second compound 0.00316 µM, first compound 0.00949 µM) was 97.1%, the viability, T/C (second compound 0.00316 µM, first compound 0.03 µM) was 88.8% and the viability, T/C (second compound 0.00316 µM, first compound 0.0949 µM) was 88.3%. It also gave a viability, T/C (second compound 0.00316 µM, first compound 0.3 µM) of 94.8%, a viability, T/C (second compound 0.00316 µM, first compound 0.949 µM) of 92.5% and a viability, T/C (second compound 0.00316 µM, first compound 3 µM) of 76.6%. It also gave a viability, T/C (second compound 0.01 µM, first compound 0.00949 µM) of 89.5%, a viability, T/C (second compound 0.01 µM, first compound 0.03 µM) of 77.5% and a viability, T/C (second compound 0.01 µM, first compound 0.0949 µM) of 102%. The viability, T/C (second compound 0.01 µM, first compound 0.3 µM) was 66%, the viability, T/C (second compound 0.01 µM, first compound 0.949 µM) was 85.6% and the viability, T/C (second compound 0.01 µM, first compound 3 µM) was 92.9%. The viability, T/C (second compound 0.0316 µM, first compound 0.00949 µM) was 64%, the viability, T/C (second compound 0.0316 µM, first compound 0.03 µM) was 51.7% and the viability, T/C (second compound 0.0316 µM, first compound 0.0949 µM) was 64.6%. The viability, T/C (second compound 0.0316 µM, first compound 0.3 µM) was 57.8%, the viability, T/C (second compound 0.0316 µM, first compound 0.949 µM) was 71.9% and the viability, T/C (second compound 0.0316 µM, first compound 3 µM) was 67.7%. For the same compound, the viability, T/C (second compound 0.1 µM, first compound 0.00949 µM) was 41.4%, the viability, T/C (second compound 0.1 µM, first compound 0.03 µM) was 34.3% and the viability, T/C (second compound 0.1 µM, first compound 0.0949 µM) was 32.9%. It also gave a viability, T/C (second compound 0.1 µM, first compound 0.3 µM) of 38.7%, a viability, T/C (second compound 0.1 µM, first compound 0.949 µM) of 41.5% and a viability, T/C (second compound 0.1 µM, first compound 3 µM) of 35.4%. It also gave a viability, T/C (second compound 0.316 µM, first compound 0.00949 µM) of 12.8%, a viability, T/C (second compound 0.316 µM, first compound 0.03 µM) of 16.8% and a viability, T/C (second compound 0.316 µM, first compound 0.0949 µM) of 16.7%. The viability, T/C (second compound 0.316 µM, first compound 0.3 µM) was 13.7%, the viability, T/C (second compound 0.316 µM, first compound 0.949 µM) was 20.4% and the viability, T/C (second compound 0.316 µM, first compound 3 µM) was 14.4%. For the same compound, the viability, T/C (second compound 1 µM, first compound 0.00949 µM) was 6.16%, the viability, T/C (second compound 1 µM, first compound 0.03 µM) was 4.64% and the viability, T/C (second compound 1 µM, first compound 0.0949 µM) was 7.54%. The viability, T/C (second compound 1 µM, first compound 0.3 µM) was 7.14%, the viability, T/C (second compound 1 µM, first compound 0.949 µM) was 7.29% and the viability, T/C (second compound 1 µM, first compound 3 µM) was 6.05%.

In the case of CCN1CCN(Cc2ccc(Nc3ncc(F)c(-c4cc(F)c5nc(C)n(C(C)C)c5c4)n3)nc2)CC1, the viability, T/C (compound 0.00316 µM) is reported as 104% [middle of 4 runs], the viability, T/C (compound 0.01 µM) is reported as 91.4% [middle of 4 runs] and the viability, T/C (compound 0.0316 µM) is reported as 102% [middle of 4 runs]. The viability, T/C (compound 0.1 µM) was 90.4% [middle of 4 runs], the viability, T/C (compound 0.316 µM) was 90.4% [middle of 4 runs] and the viability, T/C (compound 1 µM) was 91.2% [middle of 4 runs]. The IC50 (curve of compound) was > 1 µM.

For Cn1ncc(Cl)c1-c1cc(C(=O)NC(CN)Cc2cccc(F)c2)sc1Cl (stereo not drawn) + Cc1nc(NC(=O)N2CCCC2C(N)=O)sc1-c1ccnc(C(C)(C)C(F)(F)F)c1, the IC50 [1] was > 10 µM, the IC50 [2] was > 10 µM and the IC50 [3] was > 10 µM. The IC50 [4] was > 10 µM, the IC50 [5] was > 10 µM and the IC50 [6] was < 0.0316 µM. For the same compound, the viability, T/C [7] was 107%, the viability, T/C [8] was 88.1% and the viability, T/C [9] was 83.8%. It also gave a viability, T/C [10] of 64.8%, a viability, T/C [11] of 64.9% and a viability, T/C [12] of 63.3%. For the same compound, the viability, T/C [13] was 88.8%, the viability, T/C [14] was 93.2% and the viability, T/C [15] was 80.3%. For the same compound, the viability, T/C [16] was 60%, the viability, T/C [17] was 55.8% and the viability, T/C [18] was 65.3%. The viability, T/C [19] was 88.1%, the viability, T/C [20] was 69.8% and the viability, T/C [21] was 75%. It also gave a viability, T/C [22] of 57.8%, a viability, T/C [23] of 60.7% and a viability, T/C [24] of 66.8%. The viability, T/C [25] was 70%, the viability, T/C [26] was 75.9% and the viability, T/C [27] was 67.7%. For the same compound, the viability, T/C [28] was 53.9%, the viability, T/C [29] was 64.6% and the viability, T/C [30] was 65.3%. The viability, T/C [31] was 58.5%, the viability, T/C [32] was 59.4% and the viability, T/C [33] was 48.9%. For the same compound, the viability, T/C [34] was 49.7%, the viability, T/C [35] was 43.9% and the viability, T/C [36] was 61.8%. The viability, T/C [37] was 35.1%, the viability, T/C [38] was 30% and the viability, T/C [39] was 33.3%. It also gave a viability, T/C [40] of 32.1%, a viability, T/C [41] of 39.7% and a viability, T/C [42] of 50.5%.

In the case of Cn1ncnc1[C@H]1c2n[nH]c(=O)c3cc(F)cc(c23)N[C@@H]1c1ccc(F)cc1, the viability, T/C (compound 0.000316 µM) is reported as 103% [middle of 4 runs], the viability, T/C (compound 0.001 µM) is reported as 98.3% [middle of 4 runs] and the viability, T/C (compound 0.01 µM) is reported as 109% [middle of 4 runs]. For the same compound, the viability, T/C (compound 0.0316 µM) was 101% [middle of 4 runs] and the IC50 (curve of compound) was > 0.1 µM.

With CC(Cn1ccc(-c2ccc(C#N)c(Cl)c2)n1)NC(=O)c1cc(C(C)O)[nH]n1 (stereo not drawn) + Cc1nc(NC(=O)N2CCCC2C(N)=O)sc1-c1ccnc(C(C)(C)C(F)(F)F)c1 the IC50 [1] was > 10 µM, the IC50 [2] was > 10 µM and the IC50 [3] was > 10 µM. For the same compound, the IC50 [4] was > 10 µM, the IC50 [5] was > 10 µM and the IC50 [6] was < 0.0316 µM. For the same compound, the viability, T/C [7] was 97%, the viability, T/C [8] was 103% and the viability, T/C [9] was 118%. The viability, T/C [10] was 84%, the viability, T/C [11] was 88.8% and the viability, T/C [12] was 63.6%. The viability, T/C [13] was 109%, the viability, T/C [14] was 88.2% and the viability, T/C [15] was 91.8%. It also gave a viability, T/C [16] of 90.9%, a viability, T/C [17] of 79.5% and a viability, T/C [18] of 67.9%. For the same compound, the viability, T/C [19] was 100%, the viability, T/C [20] was 101% and the viability, T/C [21] was 93.8%. It also gave a viability, T/C [22] of 96.8%, a viability, T/C [23] of 85.7% and a viability, T/C [24] of 66.6%. For the same compound, the viability, T/C [25] was 95.5%, the viability, T/C [26] was 95.8% and the viability, T/C [27] was 84.4%. The viability, T/C [28] was 87.6%, the viability, T/C [29] was 85% and the viability, T/C [30] was 63.2%. It also gave a viability, T/C [31] of 82.8%, a viability, T/C [32] of 73.4% and a viability, T/C [33] of 61%. The viability, T/C [34] was 65.8%, the viability, T/C [35] was 63.1% and the viability, T/C [36] was 50.4%. For the same compound, the viability, T/C [37] was 36%, the viability, T/C [38] was 42.3% and the viability, T/C [39] was 44.2%. The viability, T/C [40] was 45.5%, the viability, T/C [41] was 36.8% and the viability, T/C [42] was 37.9%.
